Assay results reported in the NIST ThermoML archive (doi:10.1016/j.tca.2013.09.023).
± gives the expanded uncertainty stated by the source.

Assays:
[1] = DTA; for Normal melting temperature: Crystal
[2] = Molar enthalpy of transition or fusion; details: DSC

| Normal melting temperature [1] | Molar enthalpy of transition or fusion ([2]; Crystal) | Triple point temperature ([1]; Crystal 2) | Molar enthalpy of transition or fusion ([2]; Crystal 2) | Glass transition temperature ([1]; Glass) | Structure (SMILES) |
| --- | --- | --- | --- | --- | --- |
| 78.00 ± 2 °C | 6.93 ± 0.239 kcal/mol |  |  |  | CCCCn1cc[n+](C)c1.[Br-] [1-butyl-3-methylimidazolium bromide] |
| 74.00 ± 2 °C | 4.3 ± 0.239 kcal/mol | 303.15 ± 2 K | 0.645 ± 0.143 kcal/mol |  | CCCCn1cc[n+](C)c1.[Cl-] [1-butyl-3-methylimidazolium chloride] |
|  |  |  |  | -70.00 ± 5 °C | CCCCn1cc[n+](C)c1.[I-] [1-butyl-3-methylimidazolium iodide] |
